Numbered stars: 1 amine (or outer) side, 2 acyl side, 3 side chain; on linkers, the order of the positions; unused ones are H or OH. Bridge positions count the residues as written; N and C are the ends. Square brackets hold non-standard residues; d marks the D form. Peptide text beside a SMILES is read from it. * marks the point of attachment. X21 = CN(C)P(=O)(Oc1ccc(C[C@H](N[*:1])C(=O)[*:2])cc1)N(C)C; X35 = O=C([C@H](Cc1ccc(-c2cccc(F)c2)cc1)N[*:1])[*:2]; Phe(4-COOH) = N[C@@H](Cc1ccc(C(=O)O)cc1)C(=O)O; Bip = N[C@@H](Cc1ccc(-c2ccccc2)cc1)C(=O)O; pY = N[C@@H](Cc1ccc(OP(=O)(O)O)cc1)C(=O)O; mTyr = N[C@@H](Cc1cccc(O)c1)C(=O)O; 3Pal = N[C@@H](Cc1cccnc1)C(=O)O; dNva = CCC[C@@H](N)C(=O)O; Carboxymethyl = O=C(O)C*; NMeA = CN[C@@H](C)C(=O)O; dAbu = CC[C@@H](N)C(=O)O; Dab = NCC[C@H](N)C(=O)O
Target: T1, PE-labeled human PD-L1-Ig binding to Jurkat cell line over-expressing human PD-1 (Jurkat-PD-1) (Homo sapiens, UniProt Q15116)
T1 construct: expressed in transfected cells; host or cells: Jurkat
Test: Jurkat-PD-1 Cell Binding High-Content Screening Assay (CBA): Method 1
Settings: Jurkat HPDL1 PD1 IC50 (uM) (Method 1), Jurkat-hPD-1 cells, PE-labeled PD-L1-Ig 20 nM final

T1 sequence (Q15116 25-288): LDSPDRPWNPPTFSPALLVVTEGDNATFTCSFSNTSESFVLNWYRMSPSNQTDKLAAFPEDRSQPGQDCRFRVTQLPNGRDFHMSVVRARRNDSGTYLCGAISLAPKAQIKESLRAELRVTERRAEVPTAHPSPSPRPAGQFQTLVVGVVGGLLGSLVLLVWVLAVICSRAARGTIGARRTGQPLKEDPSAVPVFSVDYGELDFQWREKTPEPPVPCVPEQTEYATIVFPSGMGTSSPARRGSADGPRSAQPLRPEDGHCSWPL

SMILES | IC50 [µM]
CC(C)C[C@@H]1NC(=O)[C@H](Cc2c[nH]c3ccccc23)NC(=O)[C@H](CC(=O)O)NC(=O)[C@H](Cc2ccc(OP(=O)(O)O)cc2)NC(=O)[C@H](Cc2ccccc2)NC(=O)CSC[C@@H](C(=O)N[C@@H](C)C(N)=O)NC(=O)[C@H](CO)NC(=O)[C@H](C(C)C)NC(=O)[C@H](CC(C)C)NC(=O)[C@H](CC(N)=O)NC(=O)[C@@H](C)NC(=O)[C@H](C)N(C)C(=O)[C@H](C(C)C)NC(=O)[C@H](Cc2ccc(-c3ccccc3)cc2)NC1=O [Compound 1756] ({CH2CO}-F[pY]DWL[Bip]V[NMeA][dA]NLVSCA-NH2; thioether N-14) | 0.03
CC(C)C[C@@H]1NC(=O)[C@H](Cc2c[nH]c3ccccc23)NC(=O)[C@H](CC(=O)O)NC(=O)[C@H](Cc2ccc(OP(=O)(N(C)C)N(C)C)cc2)NC(=O)[C@H](Cc2ccccc2)NC(=O)CSC[C@@H](C(=O)N[C@@H](C)C(N)=O)NC(=O)[C@H](CO)NC(=O)[C@H](C(C)C)NC(=O)[C@H](CC(C)C)NC(=O)[C@H](CC(N)=O)NC(=O)[C@@H](C)NC(=O)[C@H](C)N(C)C(=O)[C@H](C(C)C)NC(=O)[C@H](Cc2ccc(-c3ccccc3)cc2)NC1=O [Compound 1764] ({CH2CO}-F[X21]DWL[Bip]V[NMeA][dA]NLVSCA-NH2; thioether N-14) | 0.04

Same assay, conditions: Jurkat-hPD-1 cells, PE-labeled PD-L1-Ig 20 nM final; read-out: Jurkat HPDL1 PD1 IC50 (uM) (Method 1)

IC50 [µM] | SMILES
0.03 | CC(C)C[C@@H]1NC(=O)[C@H](Cc2c[nH]c3ccccc23)NC(=O)[C@H](CC(=O)O)NC(=O)[C@H](Cc2ccc(O)cc2)NC(=O)[C@H](Cc2ccccc2)NC(=O)CSC[C@@H](C(=O)N[C@@H](C)C(N)=O)NC(=O)[C@H](CO)NC(=O)[C@H](C(C)C)NC(=O)[C@H](CC(C)C)NC(=O)[C@H](CC(N)=O)NC(=O)[C@@H](C)NC(=O)[C@H](C)N(C)C(=O)[C@H](C(C)C)NC(=O)[C@H](Cc2ccc(-c3cccc(F)c3)cc2)NC1=O [Compound 1759] ({CH2CO}-FYDWL[X35]V[NMeA][dA]NLVSCA-NH2; thioether N-14)
0.03 | CC(C)C[C@@H]1NC(=O)[C@H](Cc2c[nH]c3ccccc23)NC(=O)[C@H](CC(=O)O)NC(=O)[C@H](Cc2ccc(C(=O)O)cc2)NC(=O)[C@H](Cc2cnc[nH]2)NC(=O)CSC[C@@H](C(=O)N[C@@H](C)C(N)=O)NC(=O)[C@H](CO)NC(=O)[C@H](C(C)C)NC(=O)[C@H](CC(C)C)NC(=O)[C@H](CC(N)=O)NC(=O)[C@@H](C)NC(=O)[C@H](C)N(C)C(=O)[C@H](C(C)C)NC(=O)[C@H](Cc2ccc(-c3ccccc3)cc2)NC1=O [Compound 1760] ({CH2CO}-H[Phe(4-COOH)]DWL[Bip]V[NMeA][dA]NLVSCA-NH2; thioether N-14)
0.04 | CC(C)C[C@@H]1NC(=O)[C@H](Cc2c[nH]c3ccccc23)NC(=O)[C@H](CC(=O)O)NC(=O)[C@H](Cc2ccc(O)cc2)NC(=O)[C@H](CC(N)=O)NC(=O)CSC[C@@H](C(=O)N[C@@H](C)C(N)=O)NC(=O)[C@H](CO)NC(=O)[C@H](C(C)C)NC(=O)[C@H](CC(C)C)NC(=O)[C@H](CC(N)=O)NC(=O)[C@@H](C)NC(=O)[C@H](C)N(C)C(=O)[C@H](C(C)C)NC(=O)[C@H](Cc2ccc(-c3ccccc3)cc2)NC1=O [Compound 1762] ({CH2CO}-NYDWL[Bip]V[NMeA][dA]NLVSCA-NH2; thioether N-14)
0.04 | CC(C)C[C@@H]1NC(=O)[C@H](Cc2c[nH]c3ccccc23)NC(=O)[C@H](CC(=O)O)NC(=O)[C@H](Cc2cccc(O)c2)NC(=O)[C@H](Cc2ccccc2)NC(=O)CSC[C@@H](C(=O)N[C@@H](C)C(N)=O)NC(=O)[C@H](CO)NC(=O)[C@H](C(C)C)NC(=O)[C@H](CC(C)C)NC(=O)[C@H](CC(N)=O)NC(=O)[C@@H](C)NC(=O)[C@H](C)N(C)C(=O)[C@H](C(C)C)NC(=O)[C@H](Cc2ccc(-c3ccccc3)cc2)NC1=O [Compound 1765] ({CH2CO}-F[mTyr]DWL[Bip]V[NMeA][dA]NLVSCA-NH2; thioether N-14)
0.04 | CC(C)C[C@@H]1NC(=O)[C@H](Cc2c[nH]c3ccccc23)NC(=O)[C@H](CC(=O)O)NC(=O)[C@H](Cc2ccc(OCC(=O)O)cc2)NC(=O)[C@H](CC(N)=O)NC(=O)CSC[C@@H](C(=O)N[C@@H](C)C(N)=O)NC(=O)[C@H](CO)NC(=O)[C@H](C(C)C)NC(=O)[C@H](CC(C)C)NC(=O)[C@H](CC(N)=O)NC(=O)[C@@H](C)NC(=O)[C@H](C)N(C)C(=O)[C@H](C(C)C)NC(=O)[C@H](Cc2ccc(-c3ccccc3)cc2)NC1=O [Compound 1769] ({CH2CO}-NY(Carboxymethyl)DWL[Bip]V[NMeA][dA]NLVSCA-NH2; thioether N-14)

More lines, now with the values behind:

SMILES | IC50 [µM]
CCC[C@H]1NC(=O)[C@H](C)N(C)C(=O)[C@H](C(C)C)NC(=O)[C@H](Cc2ccc(-c3ccccc3)cc2)NC(=O)[C@H](CC(C)C)NC(=O)[C@H](Cc2c[nH]c3ccccc23)NC(=O)[C@H](CC(=O)O)NC(=O)[C@H](Cc2ccc(O)cc2)NC(=O)[C@H](Cc2ccccc2)NC(=O)CSC[C@@H](C(=O)N[C@@H](C)C(N)=O)NC(=O)[C@H](CO)NC(=O)[C@H](C(C)C)NC(=O)[C@H](CC(C)C)NC(=O)[C@H](CC(N)=O)NC1=O [Compound 1755] ({CH2CO}-FYDWL[Bip]V[NMeA][dNva]NLVSCA-NH2; thioether N-14) | 0.03
CC(C)C[C@@H]1NC(=O)[C@H](Cc2c[nH]c3ccccc23)NC(=O)[C@H](CC(=O)O)NC(=O)[C@H](Cc2ccc(O)cc2)NC(=O)[C@H](Cc2ccccc2)NC(=O)CSC[C@@H](C(=O)NCC(N)=O)NC(=O)[C@H](CO)NC(=O)[C@H](C(C)C)NC(=O)[C@H](CC(C)C)NC(=O)[C@H](CC(N)=O)NC(=O)CNC(=O)[C@H](C)N(C)C(=O)[C@H](C(C)C)NC(=O)[C@H](Cc2ccc(-c3ccccc3)cc2)NC1=O [Compound 1757] ({CH2CO}-FYDWL[Bip]V[NMeA]GNLVSCG-NH2; thioether N-14) | 0.03
CC(C)C[C@@H]1NC(=O)[C@H](Cc2c[nH]c3ccccc23)NC(=O)[C@H](CC(=O)O)NC(=O)[C@H](Cc2ccc(O)cc2)NC(=O)[C@H](CC(N)=O)NC(=O)CSC[C@@H](C(=O)N[C@@H](C)C(N)=O)NC(=O)[C@H](CO)NC(=O)[C@H](C(C)C)NC(=O)[C@H](CC(C)C)NC(=O)[C@H](CCN)NC(=O)[C@@H](C)NC(=O)[C@H](C)N(C)C(=O)[C@H](CCCNC(=N)N)NC(=O)[C@H](Cc2ccc(-c3ccccc3)cc2)NC1=O [Compound 1758] ({CH2CO}-NYDWL[Bip]R[NMeA][dA][Dab]LVSCA-NH2; thioether N-14) | 0.03
CC(C)C[C@@H]1NC(=O)[C@H](Cc2c[nH]c3ccccc23)NC(=O)[C@H](CC(=O)O)NC(=O)[C@H](Cc2ccc(C(=O)O)cc2)NC(=O)[C@H](Cc2cccnc2)NC(=O)CSC[C@@H](C(=O)N[C@@H](C)C(N)=O)NC(=O)[C@H](CO)NC(=O)[C@H](C(C)C)NC(=O)[C@H](CC(C)C)NC(=O)[C@H](CCCCN)NC(=O)[C@@H](C)NC(=O)[C@H](C)N(C)C(=O)[C@H](CCC(=O)O)NC(=O)[C@H](Cc2ccc(-c3ccccc3)cc2)NC1=O [Compound 1761] ({CH2CO}-[3Pal][Phe(4-COOH)]DWL[Bip]E[NMeA][dA]KLVSCA-NH2; thioether N-14) | 0.03
CC[C@H]1NC(=O)[C@H](C)N(C)C(=O)[C@H](C(C)C)NC(=O)[C@H](Cc2ccc(-c3ccccc3)cc2)NC(=O)[C@H](CC(C)C)NC(=O)[C@H](Cc2c[nH]c3ccccc23)NC(=O)[C@H](CC(=O)O)NC(=O)[C@H](Cc2ccc(O)cc2)NC(=O)[C@H](Cc2ccccc2)NC(=O)CSC[C@@H](C(=O)N[C@@H](C)C(N)=O)NC(=O)[C@H](CO)NC(=O)[C@H](C(C)C)NC(=O)[C@H](CC(C)C)NC(=O)[C@H](CC(N)=O)NC1=O [Compound 1763] ({CH2CO}-FYDWL[Bip]V[NMeA][dAbu]NLVSCA-NH2; thioether N-14) | 0.04
CC(C)C[C@@H]1NC(=O)[C@H](Cc2c[nH]c3ccccc23)NC(=O)[C@H](CC(=O)O)NC(=O)[C@H](Cc2ccc(O)cc2)NC(=O)[C@H](Cc2ccccc2)NC(=O)CSC[C@@H](C(=O)N[C@@H](C)C(N)=O)NC(=O)[C@H]([C@@H](C)O)NC(=O)[C@H](CCCCN)NC(=O)[C@H](CC(C)C)NC(=O)[C@H](CC(N)=O)NC(=O)[C@@H](C)NC(=O)[C@H](C)N(C)C(=O)[C@H](C(C)C)NC(=O)[C@H](Cc2ccc(-c3ccccc3)cc2)NC1=O [Compound 1766] ({CH2CO}-FYDWL[Bip]V[NMeA][dA]NLKTCA-NH2; thioether N-14) | 0.04
CC(C)C[C@@H]1NC(=O)[C@H](Cc2c[nH]c3ccccc23)NC(=O)[C@H](CC(=O)O)NC(=O)[C@H](Cc2ccc(O)cc2)NC(=O)[C@H](Cc2ccccc2)NC(=O)CSC[C@@H](C(=O)N[C@@H](C)C(N)=O)NC(=O)[C@H](CO)NC(=O)[C@H](C(C)C)NC(=O)[C@H](CC(C)C)NC(=O)[C@H](CCCCN)NC(=O)[C@@H](C)NC(=O)[C@H](C)N(C)C(=O)[C@H](CCC(=O)O)NC(=O)[C@H](Cc2ccc(-c3ccccc3)cc2)NC1=O [Compound 1767] ({CH2CO}-FYDWL[Bip]E[NMeA][dA]KLVSCA-NH2; thioether N-14) | 0.04
CC(C)C[C@@H]1NC(=O)[C@H](Cc2c[nH]c3ccccc23)NC(=O)[C@H](CC(=O)O)NC(=O)[C@H](Cc2ccc(O)cc2)NC(=O)[C@H](Cc2ccccc2)NC(=O)CSC[C@@H](C(=O)N[C@@H](C)C(N)=O)NC(=O)[C@H](CO)NC(=O)[C@H](C(C)C)NC(=O)[C@H](CC(C)C)NC(=O)[C@H](CC(N)=O)NC(=O)[C@@H](C)NC(=O)[C@H](C)N(C)C(=O)[C@H](CCC(=O)O)NC(=O)[C@H](Cc2ccc(-c3ccccc3)cc2)NC1=O [Compound 1768] ({CH2CO}-FYDWL[Bip]E[NMeA][dA]NLVSCA-NH2; thioether N-14) | 0.04
CC(C)C[C@@H]1NC(=O)[C@H](CCCNC(=N)N)NC(=O)[C@@H](CC(C)C)NC(=O)[C@H](C)N(C)C(=O)[C@H](C(C)C)NC(=O)[C@H](Cc2ccc(-c3ccccc3)cc2)NC(=O)[C@H](C(C)C)NC(=O)[C@H](Cc2c[nH]c3ccccc23)NC(=O)[C@H](CC(=O)O)NC(=O)[C@H](Cc2ccc(O)cc2)NC(=O)[C@H](Cc2ccccc2)NC(=O)CSC[C@@H](C(=O)N[C@@H](C)C(N)=O)NC(=O)[C@H](CO)NC(=O)[C@H](C(C)C)NC1=O [Compound 1770] ({CH2CO}-FYDWV[Bip]V[NMeA][dL]RLVSCA-NH2; thioether N-14) | 0.04
